From patent US20260217701A1, “SELECTIVE BET INHIBITORS AND USES THEREOF” (Tay Therapeutics Limited, priority 2022, published 2026)
“And” between values parts separate entries of the source, which are not always exact repeats. Equal entries are not always repeated. Where two headings read alike, the source gives them in different places. Marks after values point to notes of the source that are not given here.

Tests used:
[1] = test system: IL-17A; experiment: IL-17A release from activated human PBMCs (ELISA); type: cell-based
Experimental: Human PBMCs used to analyze inhibition of CXCL10 were collected from 8 donors, PBMCs used to analyze inhibition of IL-17A were collected from 7 donors, and PBMCs used to analyze inhibition of IL-22 were collected from 6 donors. Compounds were serially diluted in 10 mM DMSO and further diluted in assay media to 100× the required final concentration, of which 2 μL was added to the specified well. […] The cell culture supernatant was collected and levels of IL-17A and IL-22 in the supernatant were assessed by ELISA (Invitrogen).

[2] = EAE study: body weight; type: in vivo, C57BI/6 mice
Experimental: Experimental Method H: EAE in animals treated with a BET inhibitor and vehicle. Animals were assigned to the groups outlined in Table 38.
Compound A may be formulated as illustrated in Experimental Method A (see Table 2E.). A 40 mg/mL stock solution of Compound A in DMSO was prepared and aliquots stored at −20° C. On each day of preparation an e.g., 0.75 mL aliquot of thawed stock was diluted with an equal volume of DMSO. The remaining vehicle components were added to provide the highest dose and then diluted with vehicle to provide lower doses. A 30 mg/mL stock solution of FTY720 in ethanol was prepared and stored at −20° C. Daily, the stock solution was diluted with room temperature water to a final dosing concentration of 0.6 mg/mL. Formulated Compound A, FTY720 and vehicle were each at room temperature for dosing.
Female C57BI/6 mice (9 weeks old) were acclimated for seven days prior to study initiation. On Day-1, animals were assigned to groups in a balanced manner to achieve similar average weights across the different groups. Chronic EAE was induced in female C57BI/6 mice following immunization with an emulsion of MOG35-55/CFA on Day 0, followed by an injection of pertussis toxin two hours after the initial immunization. On Day 1, a second injection of pertussis toxin was administered 24 hours after the initial immunization. Mice were injected subcutaneously at two sites on the back with the MOG35-55/CFA emulsion (Hooke Kit™ MOG35-55/CFA Emulsion PTX). The first injection site was located approximately 1 cm caudal of the neckline (upper back), and the second injection site was approximately 2 cm cranial of the base of the tail (lower back). The injection volume was 0.1 mL for each injection. The pertussis toxin was administered at the described times through intraperitoneal injection at a concentration of 85 ng/dose for both injections.
Body weight was measured three times a week (Monday, Wednesday, and Friday) starting on Day-1. Animals were scored daily for EAE starting on Day 7. In-between scores were assigned when the clinical signs fell between two below defined scores.

[3] = Compound A 1 mg/kg (Group 2), Day 0
[4] = Compound A 1 mg/kg (Group 2), Day 2
[5] = Compound A 1 mg/kg (Group 2), Day 5
[6] = Compound A 1 mg/kg (Group 2), Day 7
[7] = Compound A 1 mg/kg (Group 2), Day 9
[8] = Compound A 1 mg/kg (Group 2), Day 12
[9] = Compound A 1 mg/kg (Group 2), Day 14
[10] = Compound A 1 mg/kg (Group 2), Day 16
[11] = Compound A 1 mg/kg (Group 2), Day 19
[12] = Compound A 1 mg/kg (Group 2), Day 21
[13] = Compound A 1 mg/kg (Group 2), Day 23
[14] = Compound A 1 mg/kg (Group 2), Day 27
[15] = Compound A 1 mg/kg (Group 2), Day 28
[16] = Compound A 1 mg/kg (Group 2), Day −1
[17] = Compound A 3 mg/kg (Group 3), Day 0
[18] = Compound A 3 mg/kg (Group 3), Day 2

## Cn1cc(-c2ccccc2)c(-c2cn(C)c(=O)c3[nH]c(-c4cnn(C(F)(F)F)c4)cc23)cc1=O [Compound A, 6-methyl-4-(1-methyl-2-oxo-5-phenyl-1,2-dihydropyridin-4-yl)-2-(1-(trifluoromethyl)-1H-pyrazol-4-yl)-1,6-dihydro-7H-pyrrolo[2,3-c]pyridin-7-one]
[1]
  potency against IL-17A relative to CXCL10: about 13,000 fold
[1]; Average preliminary biomarker assay
  Biomarker selectivity (IL-17 vs. CXCL10): 3492 Fold
[1]; Compound Conc. 0.000137174 μM, Donors 1-7, two values per donor
  Percent Inhibition Relative to Control (IL-17A): 30.76% and 39.93% and 12.53% and 17.16% and 22.57% and 38.63% and 4.46% and 42.02% and 55.02* Percent and 40.50% and 25.91% and 19.06% and 25.23% and 32.91%
[1]; Compound Conc. 0.000411523 μM, Donors 1-7, two values per donor
  Percent Inhibition Relative to Control (IL-17A): 42.92% and 60.88% and 49.48% and 23.24% and 46.54% and 52.23% and 60.62% and 51.01% and 51.11% and 62.34% and 51.68% and 47.46% and 28.29% and 56.37%
[1]; Compound Conc. 0.001234568 μM, Donors 1-7, two values per donor
  Percent Inhibition Relative to Control (IL-17A): 56.92% and 75.17% and 53.28% and 57.9% and 62.54% and 63.56% and 62.80% and 67.54% and 70.18% and 58.60% and 66.13% and 59.19% and 60.91% and 75.98%
[1]; Compound Conc. 0.011111111 μM, Donors 1-7, two values per donor
  Percent Inhibition Relative to Control (IL-17A): 75.17% and 74.77% and 72.8%
[1]; Compound Conc. 0.033333333 μM, Donors 1-7, two values per donor
  Percent Inhibition Relative to Control (IL-17A): 76.69% and 83.98% and 75.68% and 76.46% and 73.03% and 78.96% and 78.00% and 81.52% and 83.08% and 69.43% and 73.08% and 77.7% and 78.81% and 89.99%
[1]; Compound Conc. 0.1 μM, Donors 1-7, two values per donor
  Percent Inhibition Relative to Control (IL-17A): 80.29% and 80.05% and 78.2% and 79.86% and 80.34% and 80.42% and 83.72% and 86.56% and 80.96% and 85.39% and 77.87% and 84.04% and 85%
[1]; Compound Conc. 1.52416E−05 μM, Donors 1-7, two values per donor
  Percent Inhibition Relative to Control (IL-17A): −2.11% and 5.95% and 4.5% and 4.36% and −0.57% and 6.2% and −11.47% and 18.94% and 28.57% and 13.94% and 37.95% and −8.34% and 0.61% and 18.05%
[1]; Compound Conc. 4.57247E−05 μM, Donors 1-7, two values per donor
  Percent Inhibition Relative to Control (IL-17A): −1.00% and 28.73% and 7.45% and 18.97% and 13.64% and 16.93% and −0.28% and 32.68% and 27.06% and 28.89% and 20.58% and 2.83% and 7.11% and 42.94%
[1]; Homo sapiens, PBMC, Average preliminary biomarker assay, read-out: IL-17A IC50 Mean
  IC50: 0.3 nM
[1]; Homo sapiens, PBMC, Compound Conc. 0.1 μM, Donors 1-7, two values per donor, read-out: Percent Inhibition Relative to Control (IL-17A)
  inhibition at 0.1 µM: 80.8%
[1]; Homo sapiens, PBMC, Preliminary biomarker assay, Test Subject 1, read-out: IL-17A IC50
  IC50: 0.2 nM
[1]; Homo sapiens, PBMC, Preliminary biomarker assay, Test Subject 2, read-out: IL-17A IC50
  IC50: 0.3 nM
[1]; Homo sapiens, PBMC, Preliminary biomarker assay, Test Subject 3, read-out: IL-17A IC50
  IC50: 0.4 nM
[1]; Homo sapiens, PBMC, ELISA, read-out: Selectivity (IC50) IL-17A
  IC50: 0.271 nM
[1]; human PBMCs, 72 hours
  IC50, inhibition of release of IL-17A: sub-nanomolar
[1]; preliminary biomarker assays
  effectiveness relative to GSK620 in reducing IL-17A, IL-22 and CXCL10: more effective than GSK620
[2]; 1 mg/kg
  Relative end weight (% of the mean Day-1 weight): 100.7%
[2]; 3 mg/kg
  Relative end weight (% of the mean Day-1 weight): 103%
[2]; 10 mg/kg
  Relative end weight (% of the mean Day-1 weight): 106%
[2]; [3]
  Mean Body Weight: 20.3 g
  Mean Body Weight (% of Day −1): 100.7 % of Day −1
[2]; [4]
  Mean Body Weight: 19.8 g
  Mean Body Weight (% of Day −1): 98.4 % of Day −1
[2]; [5]
  Mean Body Weight: 20.0 g
  Mean Body Weight (% of Day −1): 99.0 % of Day −1
[2]; [6]
  Mean Body Weight: 20.1 g
  Mean Body Weight (% of Day −1): 99.8 % of Day −1
[2]; [7]
  Mean Body Weight: 21.4 g
  Mean Body Weight (% of Day −1): 105.3 % of Day −1
[2]; [8]
  Mean Body Weight: 20.7 g
  Mean Body Weight (% of Day −1): 102.1 % of Day −1
[2]; [9]
  Mean Body Weight: 19.9 g
  Mean Body Weight (% of Day −1): 98.4 % of Day −1
[2]; [10]
  Mean Body Weight: 19.4 g
  Mean Body Weight (% of Day −1): 95.7 % of Day −1
[2]; [11]
  Mean Body Weight: 19.6 g
  Mean Body Weight (% of Day −1): 96.8 % of Day −1
[2]; [12]
  Mean Body Weight: 20.3 g
  Mean Body Weight (% of Day −1): 99.9 % of Day −1
[2]; [13]
  Mean Body Weight: 20.7 g
  Mean Body Weight (% of Day −1): 102.0 % of Day −1
[2]; [14]
  Mean Body Weight: 20.4 g
  Mean Body Weight (% of Day −1): 100.4 % of Day −1
[2]; [15]
  Mean Body Weight: 20.4 g
  Mean Body Weight (% of Day −1): 100.7 % of Day −1
[2]; [16]
  Mean Body Weight: 20.1 g
  Mean Body Weight (% of Day −1): 100.0 % of Day −1
[2]; Compound A 1 mg/kg, mean end body weight
  Mean Body Weight Change (% of Day −1): 100.7* % of Day −1
[2]; [17]
  Mean Body Weight: 20.3 g
  Mean Body Weight (% of Day −1): 100.6 % of Day −1
[2]; [18]
  Mean Body Weight: 19.5 g
  Mean Body Weight (% of Day −1): 96.7 % of Day −1
